Tests used:
[1] = target: Serine/threonine-protein kinase MRCK beta (Homo sapiens) (UniProt Q9Y5S2); assay: Inhibition of human MRCKB (L56 to S417 residues) expressed in bacterial expression system assessed as residual activity at 50 nM by KINOMEscan assay relative to control
[2] = target: Epidermal growth factor receptor (Homo sapiens) (UniProt P00533); assay: Inhibition of wild-type human partial length EGFR (R669 to V1011 residues) expressed in bacterial expression system assessed as residual activity at 50 nM by Kinomescan method relative to control
[3] = target: Serine/threonine-protein kinase SIK2 (Homo sapiens) (UniProt Q9H0K1); assay: Inhibition of wild-type human full length QIK (M1 to N926 residues) expressed in bacterial expression system assessed as residual activity at 50 nM by Kinomescan method relative to control
[4] = target: Serine/threonine-protein kinase 24 (Homo sapiens) (UniProt Q9Y6E0); assay: Inhibition of wild-type human partial length MST3 (A30 to S311 residues) expressed in bacterial expression system assessed as residual activity at 50 nM by Kinomescan method relative to control
[5] = target: Serine/threonine-protein kinase DCLK1 (Homo sapiens) (UniProt O15075); assay: Inhibition of wild-type human partial length DCAMKL1 (L270 to A662 residues) expressed in mammalian expression system assessed as residual activity at 50 nM by Kinomescan method relative to control
[6] = target: LIM domain kinase 1 (Homo sapiens) (UniProt P53667); assay: Inhibition of wild-type human full length LIMK1 (M1 to D647 residues) expressed in bacterial expression system assessed as residual activity at 50 nM by Kinomescan method relative to control
[7] = target: MAP/microtubule affinity-regulating kinase 3 (Homo sapiens) (UniProt P27448); assay: Inhibition of wild-type human full length MARK3 (M1 to L729 residues) expressed in bacterial expression system assessed as residual activity at 50 nM by Kinomescan method relative to control
[8] = target: Serine/threonine-protein kinase VRK2 (Homo sapiens) (UniProt Q86Y07); assay: Inhibition of wild-type human partial length VRK2 (M1 to T336 residues) expressed in mammalian expression system assessed as residual activity at 50 nM by Kinomescan method relative to control
[9] = target: Receptor tyrosine-protein kinase erbB-2 (Homo sapiens) (UniProt P04626); assay: Inhibition of wild-type human partial length ERBB2 (K646 to V1225 residues) expressed in mammalian expression system assessed as residual activity at 50 nM by Kinomescan method relative to control
[10] = target: Mitogen-activated protein kinase 11 (Homo sapiens) (UniProt Q15759); assay: Inhibition of wild-type human full length p38-beta (M1 to Q364 residues) expressed in bacterial expression system assessed as residual activity at 50 nM by Kinomescan method relative to control
[11] = organism: Homo sapiens; assay: Inhibition of human partial length FLT3 ITD mutant expressed in bacterial expression system assessed as residual activity at 50 nM by Kinomescan method relative to control
[12] = target: Dual specificity mitogen-activated protein kinase kinase 2 (Homo sapiens) (UniProt P36507); assay: Inhibition of wild-type human full length MAP2K2 (M1 to V400 residues) expressed in mammalian expression system assessed as residual activity at 50 nM by Kinomescan method relative to control
[13] = target: Atypical kinase COQ8B, mitochondrial (Homo sapiens) (UniProt Q96D53); assay: Inhibition of wild-type human full length ADCK4 (M1 to S544 residues) expressed in bacterial expression system assessed as residual activity at 50 nM by Kinomescan method relative to control
[14] = target: Serine/threonine-protein kinase B-raf (Homo sapiens) (UniProt P15056); assay: Inhibition of wild-type human partial length BRAF (S429 to E741 residues) expressed in mammalian expression system assessed as residual activity at 50 nM by Kinomescan method relative to control
[15] = target: Cyclin-dependent kinase 5 (Homo sapiens) (UniProt Q00535); assay: Inhibition of wild-type human full length CDK5 (M1 to P292 residues) expressed in bacterial expression system assessed as residual activity at 50 nM by Kinomescan method relative to control
[16] = target: Cyclin-dependent kinase 17 (Homo sapiens) (UniProt Q00537); assay: Inhibition of recombinant human full length PCTAIRE2 (M1 to F523 residues) assessed as residual activity at 50 nM by Kinomescan method relative to control
[17] = target: Tyrosine-protein kinase Blk (Homo sapiens) (UniProt P51451); assay: Inhibition of wild-type human partial length BLK (G211 to L503 residues) expressed in bacterial expression system assessed as residual activity at 50 nM by Kinomescan method relative to control
[18] = target: Serine/threonine-protein kinase Chk2 (Homo sapiens) (UniProt O96017); assay: Inhibition of wild-type human partial length CHK2 (S253 to E574 residues) expressed in bacterial expression system assessed as residual activity at 50 nM by Kinomescan method relative to control
[19] = target: Discoidin domain-containing receptor 2 (Homo sapiens) (UniProt Q16832); assay: Inhibition of wild-type human partial length DDR2 (V555 to E855 residues) expressed in mammalian expression system assessed as residual activity at 50 nM by Kinomescan method relative to control
[20] = target: Ephrin type-A receptor 7 (Homo sapiens) (UniProt Q15375); assay: Inhibition of wild-type human partial length EPHA7 (Y608 to S912 residues) expressed in bacterial expression system assessed as residual activity at 50 nM by Kinomescan method relative to control
[21] = target: Fibroblast growth factor receptor 2 (Homo sapiens) (UniProt P21802); assay: Inhibition of wild-type human partial length FGFR2 (D457 to E769 residues) expressed in bacterial expression system assessed as residual activity at 50 nM by Kinomescan method relative to control
[22] = target: Tyrosine-protein kinase HCK (Homo sapiens) (UniProt P08631); assay: Inhibition of wild-type human full length HCK (M22 to P526 residues) expressed in bacterial expression system assessed as residual activity at 50 nM by Kinomescan method relative to control
[23] = target: Receptor tyrosine-protein kinase erbB-3 (Homo sapiens) (UniProt P21860); assay: Inhibition of wild-type human partial length ERBB3 (G684 to A987 residues) expressed in mammalian expression system assessed as residual activity at 50 nM by Kinomescan method relative to control
[24] = target: Mitogen-activated protein kinase kinase kinase 10 (Homo sapiens) (UniProt Q02779); assay: Inhibition of wild-type human partial length MLK2 (V52 to W380 residues) expressed in bacterial expression system assessed as residual activity at 50 nM by Kinomescan method relative to control
[25] = target: Ribosomal protein S6 kinase alpha-5 (Homo sapiens) (UniProt O75582); assay: Inhibition of wild-type human partial length N-terminal MSK1 kinase domain 1 expressed in bacterial expression system assessed as residual activity at 50 nM by Kinomescan method relative to control
[26] = target: Serine/threonine-protein kinase OSR1 (Homo sapiens) (UniProt O95747); assay: Inhibition of wild-type human full length OSR1 (M1 to S527 residues) expressed in mammalian expression system assessed as residual activity at 50 nM by Kinomescan method relative to control

LIM domain kinase 1 (Homo sapiens), sequence (P53667 whole entry, looked up, the tested form may be a part): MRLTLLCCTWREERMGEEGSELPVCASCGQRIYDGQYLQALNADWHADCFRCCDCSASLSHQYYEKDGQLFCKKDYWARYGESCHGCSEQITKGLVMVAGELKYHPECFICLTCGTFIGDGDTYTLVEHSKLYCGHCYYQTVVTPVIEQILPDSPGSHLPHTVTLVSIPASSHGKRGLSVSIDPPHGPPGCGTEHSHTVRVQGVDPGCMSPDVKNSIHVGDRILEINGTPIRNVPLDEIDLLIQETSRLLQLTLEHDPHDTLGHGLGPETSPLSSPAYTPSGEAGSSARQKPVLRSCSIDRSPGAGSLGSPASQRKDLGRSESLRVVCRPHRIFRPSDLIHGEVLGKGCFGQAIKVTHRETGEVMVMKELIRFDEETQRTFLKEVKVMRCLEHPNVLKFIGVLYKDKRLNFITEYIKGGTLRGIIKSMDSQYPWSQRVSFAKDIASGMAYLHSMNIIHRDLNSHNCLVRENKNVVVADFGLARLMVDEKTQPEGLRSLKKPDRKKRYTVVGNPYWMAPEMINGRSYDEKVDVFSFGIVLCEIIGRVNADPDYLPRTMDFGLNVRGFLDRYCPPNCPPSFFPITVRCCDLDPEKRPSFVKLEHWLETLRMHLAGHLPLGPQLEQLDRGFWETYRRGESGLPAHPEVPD
Serine/threonine-protein kinase Chk2 (Homo sapiens), sequence (O96017 whole entry, the tested form may be a part): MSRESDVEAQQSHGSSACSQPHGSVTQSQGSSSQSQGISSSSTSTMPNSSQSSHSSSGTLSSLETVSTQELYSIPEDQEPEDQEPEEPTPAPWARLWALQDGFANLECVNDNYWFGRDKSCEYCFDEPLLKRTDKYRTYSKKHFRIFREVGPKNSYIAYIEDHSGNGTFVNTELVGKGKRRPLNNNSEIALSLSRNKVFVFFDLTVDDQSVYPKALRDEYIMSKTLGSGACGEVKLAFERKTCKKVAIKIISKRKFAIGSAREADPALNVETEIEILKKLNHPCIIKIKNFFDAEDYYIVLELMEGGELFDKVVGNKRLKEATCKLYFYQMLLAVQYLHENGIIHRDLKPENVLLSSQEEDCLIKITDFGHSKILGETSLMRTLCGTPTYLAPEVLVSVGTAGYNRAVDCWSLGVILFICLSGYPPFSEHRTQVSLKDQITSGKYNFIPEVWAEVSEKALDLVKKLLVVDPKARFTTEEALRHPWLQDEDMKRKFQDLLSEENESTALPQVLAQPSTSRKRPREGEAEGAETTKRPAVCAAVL
Ephrin type-A receptor 7 (Homo sapiens), sequence (Q15375 28-998 limits assumed): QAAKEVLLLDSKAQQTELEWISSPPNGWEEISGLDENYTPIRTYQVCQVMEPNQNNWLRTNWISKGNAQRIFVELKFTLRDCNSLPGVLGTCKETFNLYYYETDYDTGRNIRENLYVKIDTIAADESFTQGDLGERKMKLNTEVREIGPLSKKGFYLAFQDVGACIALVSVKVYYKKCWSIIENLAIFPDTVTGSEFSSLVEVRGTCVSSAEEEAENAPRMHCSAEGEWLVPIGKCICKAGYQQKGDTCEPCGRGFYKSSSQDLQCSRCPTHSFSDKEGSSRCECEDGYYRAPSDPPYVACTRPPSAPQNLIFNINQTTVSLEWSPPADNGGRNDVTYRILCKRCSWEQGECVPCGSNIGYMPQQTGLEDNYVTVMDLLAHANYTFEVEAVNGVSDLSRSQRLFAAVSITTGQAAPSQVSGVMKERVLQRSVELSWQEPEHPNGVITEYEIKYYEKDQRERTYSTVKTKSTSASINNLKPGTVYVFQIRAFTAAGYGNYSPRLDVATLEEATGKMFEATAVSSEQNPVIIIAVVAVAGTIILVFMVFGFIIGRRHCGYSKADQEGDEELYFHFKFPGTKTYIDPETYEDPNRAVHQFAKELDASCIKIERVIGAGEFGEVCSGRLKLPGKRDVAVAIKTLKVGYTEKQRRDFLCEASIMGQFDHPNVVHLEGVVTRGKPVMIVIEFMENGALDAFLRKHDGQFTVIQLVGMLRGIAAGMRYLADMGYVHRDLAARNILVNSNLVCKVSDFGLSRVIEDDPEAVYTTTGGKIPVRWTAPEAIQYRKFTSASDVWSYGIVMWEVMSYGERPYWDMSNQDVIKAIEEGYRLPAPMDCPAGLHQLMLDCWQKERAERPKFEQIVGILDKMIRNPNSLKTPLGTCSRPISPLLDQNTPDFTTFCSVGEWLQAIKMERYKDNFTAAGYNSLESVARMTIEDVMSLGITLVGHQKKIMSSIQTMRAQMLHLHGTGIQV
Serine/threonine-protein kinase MRCK beta (Homo sapiens), sequence (Q9Y5S2 whole entry, the tested form may be a part): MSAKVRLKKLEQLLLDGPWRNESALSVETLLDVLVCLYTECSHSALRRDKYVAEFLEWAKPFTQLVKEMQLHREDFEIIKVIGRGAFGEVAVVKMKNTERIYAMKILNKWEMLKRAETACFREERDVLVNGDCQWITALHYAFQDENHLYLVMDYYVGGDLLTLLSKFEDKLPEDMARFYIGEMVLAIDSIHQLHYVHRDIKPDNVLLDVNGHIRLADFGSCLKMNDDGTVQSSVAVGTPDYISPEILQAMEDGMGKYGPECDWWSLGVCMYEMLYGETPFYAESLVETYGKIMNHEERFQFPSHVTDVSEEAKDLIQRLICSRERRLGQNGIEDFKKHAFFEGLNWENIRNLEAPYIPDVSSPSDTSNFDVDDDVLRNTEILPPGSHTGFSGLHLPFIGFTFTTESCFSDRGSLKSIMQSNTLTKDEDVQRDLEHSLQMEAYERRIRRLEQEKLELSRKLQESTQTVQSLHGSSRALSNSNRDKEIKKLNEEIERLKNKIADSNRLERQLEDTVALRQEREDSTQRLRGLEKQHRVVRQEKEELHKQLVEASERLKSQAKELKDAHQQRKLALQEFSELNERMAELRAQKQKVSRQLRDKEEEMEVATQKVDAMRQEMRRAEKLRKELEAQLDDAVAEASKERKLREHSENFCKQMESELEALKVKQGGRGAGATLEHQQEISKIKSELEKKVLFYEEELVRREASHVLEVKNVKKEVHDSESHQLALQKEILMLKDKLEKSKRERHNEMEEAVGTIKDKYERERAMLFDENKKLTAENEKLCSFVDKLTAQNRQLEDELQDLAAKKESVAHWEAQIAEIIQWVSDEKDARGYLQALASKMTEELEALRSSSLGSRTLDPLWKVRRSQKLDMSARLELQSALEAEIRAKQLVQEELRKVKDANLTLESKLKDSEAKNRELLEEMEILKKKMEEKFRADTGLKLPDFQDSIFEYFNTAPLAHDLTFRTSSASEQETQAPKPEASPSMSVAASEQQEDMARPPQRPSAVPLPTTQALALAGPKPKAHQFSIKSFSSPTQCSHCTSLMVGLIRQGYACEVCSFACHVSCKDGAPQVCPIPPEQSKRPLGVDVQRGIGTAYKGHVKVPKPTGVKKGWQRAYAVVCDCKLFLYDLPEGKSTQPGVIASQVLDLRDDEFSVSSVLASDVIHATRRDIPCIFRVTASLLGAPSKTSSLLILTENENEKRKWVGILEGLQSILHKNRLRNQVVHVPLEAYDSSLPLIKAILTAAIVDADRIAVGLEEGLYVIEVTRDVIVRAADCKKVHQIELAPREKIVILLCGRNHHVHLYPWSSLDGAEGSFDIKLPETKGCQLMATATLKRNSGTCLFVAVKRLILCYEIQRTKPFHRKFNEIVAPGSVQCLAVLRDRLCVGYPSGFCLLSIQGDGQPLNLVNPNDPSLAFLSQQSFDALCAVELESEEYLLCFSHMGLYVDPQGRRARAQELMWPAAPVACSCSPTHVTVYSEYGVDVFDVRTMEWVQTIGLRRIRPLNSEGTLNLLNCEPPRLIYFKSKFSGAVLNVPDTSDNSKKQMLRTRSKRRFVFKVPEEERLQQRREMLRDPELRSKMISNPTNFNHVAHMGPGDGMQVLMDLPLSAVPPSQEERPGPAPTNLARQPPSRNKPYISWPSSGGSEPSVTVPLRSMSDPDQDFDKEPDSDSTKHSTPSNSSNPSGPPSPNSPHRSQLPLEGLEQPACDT
Mitogen-activated protein kinase kinase kinase 10 (Homo sapiens), sequence (Q02779 whole entry, looked up, the tested form may be a part): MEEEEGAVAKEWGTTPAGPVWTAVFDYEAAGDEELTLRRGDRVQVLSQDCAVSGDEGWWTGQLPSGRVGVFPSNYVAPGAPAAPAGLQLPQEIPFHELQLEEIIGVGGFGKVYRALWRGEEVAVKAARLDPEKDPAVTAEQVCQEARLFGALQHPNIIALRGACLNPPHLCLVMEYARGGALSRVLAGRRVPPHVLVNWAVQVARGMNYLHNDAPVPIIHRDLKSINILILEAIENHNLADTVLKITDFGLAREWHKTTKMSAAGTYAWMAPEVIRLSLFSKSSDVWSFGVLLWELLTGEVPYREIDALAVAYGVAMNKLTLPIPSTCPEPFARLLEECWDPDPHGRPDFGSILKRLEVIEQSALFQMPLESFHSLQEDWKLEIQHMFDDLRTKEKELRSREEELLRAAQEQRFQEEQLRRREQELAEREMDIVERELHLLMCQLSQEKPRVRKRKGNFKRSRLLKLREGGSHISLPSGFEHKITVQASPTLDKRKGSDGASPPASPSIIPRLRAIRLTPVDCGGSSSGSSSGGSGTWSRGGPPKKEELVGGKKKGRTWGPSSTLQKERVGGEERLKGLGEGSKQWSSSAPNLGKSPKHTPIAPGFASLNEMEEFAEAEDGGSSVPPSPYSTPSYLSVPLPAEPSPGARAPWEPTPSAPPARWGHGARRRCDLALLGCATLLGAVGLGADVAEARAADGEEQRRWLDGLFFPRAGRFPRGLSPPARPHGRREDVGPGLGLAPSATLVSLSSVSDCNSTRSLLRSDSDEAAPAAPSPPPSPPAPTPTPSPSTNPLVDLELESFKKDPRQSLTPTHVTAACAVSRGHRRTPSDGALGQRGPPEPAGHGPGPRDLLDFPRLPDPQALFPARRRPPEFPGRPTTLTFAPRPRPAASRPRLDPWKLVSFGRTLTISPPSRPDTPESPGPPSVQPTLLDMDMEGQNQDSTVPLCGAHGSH

SMILES	Activity [1]	Activity [2]	Activity [3]	Activity [4]	Activity [5]	Activity [6]	Activity [7]	Activity [8]	Activity [9]	Activity [10]	Activity [11]	Activity [12]	Activity [13]	Activity [14]	Activity [15]	Activity [16]	Activity [17]	Activity [18]	Activity [19]	Activity [20]	other results
COc1ccc(-c2cc3c(N[C@@H]4CC[C@](C)(N)C4(C)C)c(C(N)=O)cnn3c2)cn1	82%	100%	63%	61%	99%	100%	100%	85%	99%	80%	79%	100%	100%	100%	92%	100%	95%	100%	100%	100%	Activity [21]: 89%; Activity [22]: 100%; Activity [23]: 100%; Activity [24]: 94%; Activity [25]: 100%; Activity [26]: 100%
CC1(C)[C@H](Nc2c(C(N)=O)cnn3cc(-c4ccccc4)cc23)CC[C@]1(C)N	29%	30%	36%	38%	67%	67%	68%	70%	76%	78%	80%	84%	91%	92%	94%	95%	100%	100%	100%	100%	Activity [21]: 100%; Activity [22]: 100%; Activity [23]: 100%; Activity [24]: 100%; Activity [25]: 100%; Activity [26]: 100%

Source: ChEMBL document CHEMBL4052645, “Discovery of potent and efficacious pyrrolopyridazines as dual JAK1/3 inhibitors” (Bioorg Med Chem Lett, 2017)
